Experimental data as given in patent publication US4060530A, “Clavulanic acid amides” (Beecham Group Limited, priority 1975, dated 1977).
Where a name gives a salt, the structure may show the parent alone.

Columns and labels:
Klebsiella aerogenes 62 = test: MIC / synergism, microtitre method (Example 42); format: cell-based
[1] = system: Staphylococcus aureus Russell; test: Growth inhibition / synergism; format: cell-based
Serratia marcescens [2] = test: MIC / synergism, microtitre method (Example 42); format: cell-based; settings: agent alone, inoculum final dilution 0.5 ×10^-2, 37° C overnight, read-out: Minimum Inhibitory Concentration
[3] = system: Escherichia coli NCTC 10481; test: MIC / synergism, microtitre method (Example 42); format: cell-based; settings: NCTC10481, agent alone, inoculum final dilution 0.5 ×10^-2, 37° C overnight, read-out: Minimum Inhibitory Concentration
Staphylococcus aureus = test: MIC / synergism, microtitre method (Example 42); format: cell-based; settings: Staphylococcus aureus; agent alone (Tables 5, 6); inoculum final dilution 0.5 ×10^-2, 37° C overnight; read-out: Minimum Inhibitory Concentration
Klebsiella aerogenes A = test: MIC / synergism, microtitre method (Example 42); format: cell-based
[4] = system: Klebsiella aerogenes E 70; test: MIC / synergism, microtitre method (Example 42); format: cell-based
[5] = system: Staphylococcus aureus (Russell); test: M.I.C. synergism with clavulanic acid methyl ester (Example 32); format: cell-based; settings: plus 1 μg/ml clavulanic acid methyl ester
Proteus mirabilis C889 = test: as above; format: cell-based; settings: plus 5 μg/ml clavulanic acid methyl ester
Proteus mirabilis 899 = test: microbe, parasite or virus in culture; format: cell-based; settings: Proteus mirabilis, 899, read-out: Minimum Inhibitory Concentration
[6] = system: Staphylococcus aureus (Russell); test: MIC, microtitre method (Example 30); settings: read-out: Minimum Inhibitory Concentration
Experimental: (§1) The cultures were incubated overnight and the points of bacterial growth recorded next morning by observing the turbidity of the culture.

Klebsiella oxytocum = test: MIC, microtitre method (Example 30); settings: read-out: Minimum Inhibitory Concentration
Experimental: as §1

[7] = system: Staphylococcus aureus (Oxford H); test: MIC, microtitre method (Example 30); settings: read-out: Minimum Inhibitory Concentration
Experimental: as §1

Escherichia coli B 11 = test: MIC / synergism, microtitre method (Example 42); format: cell-based; settings: B11, agent alone, inoculum final dilution 0.5 ×10^-2, 37° C overnight, read-out: Minimum Inhibitory Concentration
Enterobacter cloacae [8] = test: MIC / synergism, microtitre method (Example 42); format: cell-based; settings: agent alone, inoculum final dilution 0.5 ×10^-2, 37° C overnight, read-out: Minimum Inhibitory Concentration
Bacillus subtilis A = test: MIC, method of Example 30 with 1/100 dilution of overnight broth (Example 46); settings: Bacillus subtilis
Experimental: as §1

Proteus mirabilis C977 = test: MIC, microtitre method (Example 30); settings: C977, read-out: Minimum Inhibitory Concentration
Experimental: as §1

Staph. aureus Oxford = test: MIC, method of Example 30 with 1/100 dilution of overnight broth (Example 46); settings: Staphylococcus aureus
Experimental: as §1

[9] = system: Enterobacter aerogenes T 624; test: MIC, microtitre method (Example 30); settings: Klebsiella aerogenes, T624, read-out: Minimum Inhibitory Concentration
Experimental: as §1

[10] = Blood and tissue levels of clavulanic acid in female mice; format: in vivo
Klebsiella sp 62 = test: MIC / synergism, microtitre method (Example 42); format: cell-based; settings: agent alone, inoculum final dilution 0.5 ×10^-2, 37° C overnight, read-out: Minimum Inhibitory Concentration
Acinetobacter anitratus = test: MIC, microtitre method (Example 30); settings: Acinetobacter calcoaceticus, read-out: Minimum Inhibitory Concentration
Experimental: as §1

[11] = system: Escherichia coli NCTC 10418; test: MIC, microtitre method (Example 30); settings: NCTC10418, read-out: Minimum Inhibitory Concentration
Experimental: as §1

Proteus vulgaris W090 = test: MIC, microtitre method (Example 30); settings: W090, read-out: Minimum Inhibitory Concentration
Experimental: as §1

Shigella sonnei = test: MIC, microtitre method (Example 30); settings: read-out: Minimum Inhibitory Concentration
Experimental: as §1

Enterobacter cloacae [12] = test: MIC, microtitre method (Example 30); settings: read-out: Minimum Inhibitory Concentration
Experimental: as §1

[13] = system: Staphylococcus aureus (Russell); test: MIC / synergism, microtitre method (Example 42); format: cell-based; settings: Staphylococcus aureus; agent alone (Tables 5, 6); inoculum final dilution 0.5 ×10^-2, 37° C overnight; read-out: Minimum Inhibitory Concentration
Salmonella typhimurium = test: MIC, microtitre method (Example 30); settings: Salmonella enterica, read-out: Minimum Inhibitory Concentration
Experimental: as §1

Serratia marcescens [14] = test: MIC, microtitre method (Example 30); settings: read-out: Minimum Inhibitory Concentration
Experimental: as §1

Bacillus subtilis = test: MIC, microtitre method (Example 30); settings: read-out: Minimum Inhibitory Concentration
Experimental: as §1

Klebsiella aerogenes = test: MIC, microtitre method (Example 30); settings: read-out: Minimum Inhibitory Concentration
Experimental: as §1

[15] = system: Streptococcus pyogenes CN 10; test: MIC, microtitre method (Example 30); settings: CN10, read-out: Minimum Inhibitory Concentration
Experimental: as §1

Staph. aureus Russell = test: MIC, method of Example 30 with 1/100 dilution of overnight broth (Example 46); settings: Staphylococcus aureus
Experimental: as §1

Pseudomonas aeruginosa A = test: MIC, microtitre method (Example 30); settings: read-out: Minimum Inhibitory Concentration
Experimental: as §1

Providentia stuartii = test: MIC, microtitre method (Example 30); settings: read-out: Minimum Inhibitory Concentration
Experimental: as §1

Escherchia coli 10418 = test: MIC, method of Example 30 with 1/100 dilution of overnight broth (Example 46)
Experimental: as §1

Streptococcus faecalis = test: MIC, microtitre method (Example 30); settings: Enterococcus faecalis, read-out: Minimum Inhibitory Concentration
Experimental: as §1

[16] = with 5 μg/ml of benzyl ester of clavulanic acid
[17] = with 5 μg/ml of methyl ester of clavulanic acid

CC1(C)S[C@@H]2[C@H](NC(=O)[C@H](N)c3ccccc3)C(=O)N2[C@H]1C(=O)O [ampicillin]
Ampicillin 5 μg/ml of Benzyl Ester of clavulanic acid (M.I.C. by method of Example 42) (Klebsiella aerogenes 62; [16]): 3.9
Ampicillin 5 μg/ml of Methyl Ester of clavulanic acid (M.I.C. by method of Example 42) (Klebsiella aerogenes 62; [17]): 3.9
MIC ([1]; Staphylococcus aureus, agent alone, read-out: concentration in whose presence growth is not inhibited): > 100 µg/mL
concentration inhibiting growth in the presence of 1 μg/ml. of clavulanic acid ([1]; plus 1 μg/ml clavulanic acid): less than 10 μg/ml
MIC (Serratia marcescens [2]): > 500 µg/mL
MIC [3]: 1.8 µg/mL
MIC (Staphylococcus aureus): 250 µg/mL
Ampicillin 5 μg/ml of Benzyl Ester of clavulanic acid (M.I.C. by method of Example 42) (Klebsiella aerogenes A; [16]): 1.9
Ampicillin 5 μg/ml of Methyl Ester of clavulanic acid (M.I.C. by method of Example 42) (Klebsiella aerogenes A; [17]): 1.9
Ampicillin 5 μg/ml of Benzyl Ester of clavulanic acid (M.I.C. by method of Example 42) [4, 16]: 3.9
Ampicillin 5 μg/ml of Methyl Ester of clavulanic acid (M.I.C. by method of Example 42) [4, 17]: 3.9
M.I.C. in the presence of 1.0 μg/ml. clavulanic acid methyl ester [5]: < 0.4 µg/mL
M.I.C. in the presence of 5 μg/ml. clavulanic acid methyl ester (Proteus mirabilis C889): 31 µg/mL

O=C(O)[C@H]1/C(=C/CO)O[C@@H]2CC(=O)N21 [clavulanic acid sodium salt, 3-(β-hydroxyethylidine)-7-oxo-4-oxa-1-azabicyclo [3,2,0]heptane-2-carboxylic acid sodium salt]
MIC (Proteus mirabilis 899): > 500 µg/mL
MIC [6]: 7.5 µg/mL
MIC (Klebsiella oxytocum): 62 µg/mL
MIC [7]: 7.5 µg/mL
MIC (Escherichia coli B 11): 62 µg/mL
MIC (Enterobacter cloacae [8]): 62 µg/mL
MIC (Bacillus subtilis A): 62 µg/mL
MIC (Proteus mirabilis C977): 62 µg/mL
MIC (Staph. aureus Oxford): 15 µg/mL
MIC [9]: 31 µg/mL
levels of clavulanic acid after oral administration ([10]; oral administration of 100 mg/kg): useful levels of clavulanic acid can be obtained
blood and tissue levels of clavulanic acid ([10]; subcutaneous administration of 100 mg/kg): > 5 µg/mL
MIC (Klebsiella sp 62): 31 µg/mL
MIC (Serratia marcescens [2]): 125 µg/mL
MIC (Acinetobacter anitratus): 125 µg/mL
MIC [11]: 31 µg/mL
MIC [3]: 31 µg/mL
MIC (Proteus vulgaris W090): 31 µg/mL
MIC (Shigella sonnei): 62 µg/mL
MIC (Enterobacter cloacae [12]): 62 µg/mL
MIC [13]: 15 µg/mL
MIC (Salmonella typhimurium): 31 µg/mL
MIC (Staphylococcus aureus): 62 µg/mL
MIC (Serratia marcescens [14]): 125 µg/mL
MIC (Bacillus subtilis): 62 µg/mL
MIC (Klebsiella aerogenes): 31 to 62 µg/mL
MIC [15]: 125 µg/mL
MIC (Staph. aureus Russell): 15 µg/mL
MIC (Pseudomonas aeruginosa A): 500 µg/mL
MIC (Providentia stuartii): 125 µg/mL
MIC (Escherchia coli 10418): 125 µg/mL
MIC (Streptococcus faecalis): > 500 µg/mL
